Experimental data taken from ChEMBL document CHEMBL4265983, “Discovery and biological evaluation of thiobarbituric derivatives as potent p300/CBP inhibitors” (Bioorg Med Chem, 2018).
Activity calls are given as the source filed them. The rule behind the calls is not given here.

Experiments:
[1] = target: Histone acetyltransferase p300 (Homo sapiens, UniProt Q09472); experiment: Inhibition of p300 (unknown origin) using human histone as substrate measured after 60 mins in presence of [3H]-acetyl-CoA by microbeta counting method
Sequence of Histone acetyltransferase p300 (Q09472 whole entry): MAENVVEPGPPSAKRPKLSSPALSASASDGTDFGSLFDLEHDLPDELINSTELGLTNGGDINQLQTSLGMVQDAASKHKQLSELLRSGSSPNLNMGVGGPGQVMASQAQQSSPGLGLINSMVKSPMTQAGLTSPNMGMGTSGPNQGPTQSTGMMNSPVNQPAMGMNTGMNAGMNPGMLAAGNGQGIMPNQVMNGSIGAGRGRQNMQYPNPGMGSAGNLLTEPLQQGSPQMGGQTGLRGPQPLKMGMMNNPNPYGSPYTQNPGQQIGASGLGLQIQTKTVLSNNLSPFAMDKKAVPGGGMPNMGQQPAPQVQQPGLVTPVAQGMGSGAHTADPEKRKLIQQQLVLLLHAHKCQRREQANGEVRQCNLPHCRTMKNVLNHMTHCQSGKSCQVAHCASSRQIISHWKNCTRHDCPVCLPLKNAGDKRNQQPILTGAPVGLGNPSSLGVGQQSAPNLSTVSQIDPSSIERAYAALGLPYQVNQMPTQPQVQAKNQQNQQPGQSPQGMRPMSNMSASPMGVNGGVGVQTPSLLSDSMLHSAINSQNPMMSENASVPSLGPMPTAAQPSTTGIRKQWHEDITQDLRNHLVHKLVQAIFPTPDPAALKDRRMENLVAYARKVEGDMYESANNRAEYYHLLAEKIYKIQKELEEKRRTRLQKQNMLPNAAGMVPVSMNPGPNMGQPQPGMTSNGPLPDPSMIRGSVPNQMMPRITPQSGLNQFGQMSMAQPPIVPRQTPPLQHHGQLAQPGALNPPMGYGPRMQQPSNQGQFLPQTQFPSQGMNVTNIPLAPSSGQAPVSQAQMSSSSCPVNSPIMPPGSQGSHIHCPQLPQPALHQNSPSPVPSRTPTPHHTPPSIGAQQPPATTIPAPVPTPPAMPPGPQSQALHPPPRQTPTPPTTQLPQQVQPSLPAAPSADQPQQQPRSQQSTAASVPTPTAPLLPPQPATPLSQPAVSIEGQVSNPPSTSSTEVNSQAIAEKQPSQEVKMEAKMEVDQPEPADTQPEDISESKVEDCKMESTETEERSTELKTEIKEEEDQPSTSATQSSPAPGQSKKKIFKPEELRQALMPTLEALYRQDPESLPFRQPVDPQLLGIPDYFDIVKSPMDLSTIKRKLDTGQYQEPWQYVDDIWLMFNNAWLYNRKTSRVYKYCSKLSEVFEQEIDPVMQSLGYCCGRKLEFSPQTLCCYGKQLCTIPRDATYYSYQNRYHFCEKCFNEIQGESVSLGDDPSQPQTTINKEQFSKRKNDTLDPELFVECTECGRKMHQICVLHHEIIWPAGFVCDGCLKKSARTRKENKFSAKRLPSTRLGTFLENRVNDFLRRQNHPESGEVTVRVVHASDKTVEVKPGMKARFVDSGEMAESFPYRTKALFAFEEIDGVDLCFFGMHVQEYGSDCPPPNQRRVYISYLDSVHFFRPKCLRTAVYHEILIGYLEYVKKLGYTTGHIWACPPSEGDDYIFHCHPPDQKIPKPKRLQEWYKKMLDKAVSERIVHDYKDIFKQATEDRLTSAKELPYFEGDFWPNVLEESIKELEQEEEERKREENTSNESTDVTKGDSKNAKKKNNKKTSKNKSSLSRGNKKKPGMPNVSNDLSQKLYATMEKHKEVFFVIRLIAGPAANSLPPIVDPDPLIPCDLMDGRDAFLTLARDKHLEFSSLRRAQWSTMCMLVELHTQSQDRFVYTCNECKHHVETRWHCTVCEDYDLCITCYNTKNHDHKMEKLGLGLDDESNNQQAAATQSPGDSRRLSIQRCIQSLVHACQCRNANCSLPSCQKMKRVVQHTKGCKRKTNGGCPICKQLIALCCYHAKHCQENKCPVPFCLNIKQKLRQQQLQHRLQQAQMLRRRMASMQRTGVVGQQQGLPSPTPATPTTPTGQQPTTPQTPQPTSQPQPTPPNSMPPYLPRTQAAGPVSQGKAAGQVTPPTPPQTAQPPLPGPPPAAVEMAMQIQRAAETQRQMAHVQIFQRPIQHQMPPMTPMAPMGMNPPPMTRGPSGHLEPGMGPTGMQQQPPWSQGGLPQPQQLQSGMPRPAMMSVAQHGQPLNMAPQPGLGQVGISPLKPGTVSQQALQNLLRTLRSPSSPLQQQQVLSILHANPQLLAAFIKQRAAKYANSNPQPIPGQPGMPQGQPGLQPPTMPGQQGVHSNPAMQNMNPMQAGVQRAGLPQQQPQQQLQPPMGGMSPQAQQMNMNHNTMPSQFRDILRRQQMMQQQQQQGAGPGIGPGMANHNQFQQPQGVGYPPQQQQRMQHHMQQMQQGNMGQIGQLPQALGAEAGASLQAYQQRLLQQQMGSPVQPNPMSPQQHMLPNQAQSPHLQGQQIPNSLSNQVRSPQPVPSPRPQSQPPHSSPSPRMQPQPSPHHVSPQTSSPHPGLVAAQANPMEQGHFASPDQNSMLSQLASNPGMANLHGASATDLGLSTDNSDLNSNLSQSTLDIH

[2] = target: Histone acetyltransferase KAT5 (Homo sapiens, UniProt Q92993); experiment: Inhibition of Tip60 (unknown origin)
[3] = system: MV4-11; experiment: Antiproliferative activity against human MV4-11 cells after 72 hrs by CellTiter-Glo assay; conditions: MV4-11, 72 h
[4] = target: T1, CREB-binding protein/Histone acetyltransferase p300 (Homo sapiens) (UniProt Q09472+Q92793); experiment: Inhibition of P300/CBP acetyl transferase activity in human Kasumi-1 cells assessed as reduction in acetylated H3K18 levels at 2.2 to 60 uM after 24 hrs in presence of SAHA by Western blot analysis; type: cell-based
T1 sequence (Q09472 whole entry, looked up): as the sequence (Q09472 whole entry) above
T1 sequence (Q92793 whole entry, looked up): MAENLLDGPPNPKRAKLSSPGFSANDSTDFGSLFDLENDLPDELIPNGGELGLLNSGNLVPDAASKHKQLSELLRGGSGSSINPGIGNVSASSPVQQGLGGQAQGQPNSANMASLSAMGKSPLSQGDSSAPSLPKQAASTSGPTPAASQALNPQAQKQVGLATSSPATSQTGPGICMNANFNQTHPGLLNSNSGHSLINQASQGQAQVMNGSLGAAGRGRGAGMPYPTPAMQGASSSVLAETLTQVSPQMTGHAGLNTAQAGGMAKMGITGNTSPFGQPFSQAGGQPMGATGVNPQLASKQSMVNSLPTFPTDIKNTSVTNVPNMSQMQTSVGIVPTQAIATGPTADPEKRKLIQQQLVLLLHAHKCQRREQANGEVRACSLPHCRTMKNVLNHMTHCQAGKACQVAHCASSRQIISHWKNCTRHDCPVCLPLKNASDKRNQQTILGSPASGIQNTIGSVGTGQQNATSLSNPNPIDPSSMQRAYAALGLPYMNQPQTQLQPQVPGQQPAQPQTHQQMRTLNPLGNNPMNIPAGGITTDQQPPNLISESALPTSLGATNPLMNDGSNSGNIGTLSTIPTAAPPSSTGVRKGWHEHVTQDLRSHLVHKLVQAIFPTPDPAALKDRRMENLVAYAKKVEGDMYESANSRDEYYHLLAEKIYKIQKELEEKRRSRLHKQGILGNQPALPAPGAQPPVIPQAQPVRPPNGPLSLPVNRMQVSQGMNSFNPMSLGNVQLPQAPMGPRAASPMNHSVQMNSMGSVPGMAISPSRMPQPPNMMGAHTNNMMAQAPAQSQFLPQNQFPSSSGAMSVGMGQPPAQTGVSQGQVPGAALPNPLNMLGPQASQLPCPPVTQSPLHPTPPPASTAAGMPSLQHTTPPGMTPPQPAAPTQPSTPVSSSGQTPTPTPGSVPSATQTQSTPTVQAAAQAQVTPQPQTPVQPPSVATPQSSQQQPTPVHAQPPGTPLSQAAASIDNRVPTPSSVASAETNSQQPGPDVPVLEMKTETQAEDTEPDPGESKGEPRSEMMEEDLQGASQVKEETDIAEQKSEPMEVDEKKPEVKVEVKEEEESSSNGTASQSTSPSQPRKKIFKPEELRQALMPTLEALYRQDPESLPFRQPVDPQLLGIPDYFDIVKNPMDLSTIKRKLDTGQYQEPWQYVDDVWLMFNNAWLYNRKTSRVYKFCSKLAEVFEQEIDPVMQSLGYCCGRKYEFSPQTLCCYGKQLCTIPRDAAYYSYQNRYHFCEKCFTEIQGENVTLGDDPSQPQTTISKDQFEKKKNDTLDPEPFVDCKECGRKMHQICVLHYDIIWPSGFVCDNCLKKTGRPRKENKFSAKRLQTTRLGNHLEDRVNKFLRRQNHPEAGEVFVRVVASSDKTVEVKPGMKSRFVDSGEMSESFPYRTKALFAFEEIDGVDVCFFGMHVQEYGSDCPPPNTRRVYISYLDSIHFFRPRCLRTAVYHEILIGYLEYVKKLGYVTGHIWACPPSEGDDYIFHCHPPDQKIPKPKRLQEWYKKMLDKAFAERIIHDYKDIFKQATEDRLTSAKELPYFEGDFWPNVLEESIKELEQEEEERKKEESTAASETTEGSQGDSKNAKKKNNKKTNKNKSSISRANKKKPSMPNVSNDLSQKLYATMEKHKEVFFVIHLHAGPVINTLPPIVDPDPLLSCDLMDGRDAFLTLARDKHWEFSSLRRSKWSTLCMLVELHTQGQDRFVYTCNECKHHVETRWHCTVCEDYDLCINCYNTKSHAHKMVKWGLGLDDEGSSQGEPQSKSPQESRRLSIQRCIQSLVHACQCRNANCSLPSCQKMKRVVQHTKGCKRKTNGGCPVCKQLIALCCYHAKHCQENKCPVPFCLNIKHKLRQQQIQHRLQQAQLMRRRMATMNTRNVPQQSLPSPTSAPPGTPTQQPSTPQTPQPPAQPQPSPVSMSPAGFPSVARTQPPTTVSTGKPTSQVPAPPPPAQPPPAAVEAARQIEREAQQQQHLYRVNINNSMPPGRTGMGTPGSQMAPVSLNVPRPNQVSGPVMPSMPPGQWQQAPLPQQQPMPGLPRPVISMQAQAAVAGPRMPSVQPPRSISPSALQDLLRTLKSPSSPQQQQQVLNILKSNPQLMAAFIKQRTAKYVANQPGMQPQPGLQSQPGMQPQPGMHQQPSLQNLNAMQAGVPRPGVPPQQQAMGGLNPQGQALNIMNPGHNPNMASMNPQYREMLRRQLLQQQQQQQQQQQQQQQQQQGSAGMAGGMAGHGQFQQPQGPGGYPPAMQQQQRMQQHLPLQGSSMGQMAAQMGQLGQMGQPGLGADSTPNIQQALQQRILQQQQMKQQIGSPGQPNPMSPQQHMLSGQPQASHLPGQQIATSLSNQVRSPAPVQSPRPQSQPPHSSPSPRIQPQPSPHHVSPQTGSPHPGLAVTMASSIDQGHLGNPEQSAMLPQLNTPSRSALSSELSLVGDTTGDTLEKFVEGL

[5] = target: T1, CREB-binding protein/Histone acetyltransferase p300 (Homo sapiens); experiment: Inhibition of P300/CBP acetyl transferase activity in human MV4-11 cells assessed as reduction in acetylated H3K18 levels at 2.2 to 60 uM after 24 hrs in presence of SAHA by Western blot analysis; type: cell-based
[6] = system: Jurkat; experiment: Antiproliferative activity against human Jurkat cells after 72 hrs by CellTiter-Glo assay
[7] = target: T1, CREB-binding protein/Histone acetyltransferase p300 (Homo sapiens); experiment: Inhibition of P300/CBP in human MV4-11 cells assessed as upregulation of BAX RNA expression at 20 uM after 12 hrs by RNA-seq analysis; type: cell-based
[8] = target: T1, CREB-binding protein/Histone acetyltransferase p300 (Homo sapiens); experiment: Inhibition of P300/CBP in human MV4-11 cells assessed as upregulation of BAX RNA expression at 20 uM after 12 hrs by RT-PCR analysis; type: cell-based
[9] = target: T1, CREB-binding protein/Histone acetyltransferase p300 (Homo sapiens); experiment: Inhibition of P300/CBP in human MV4-11 cells assessed as upregulation of SESN2 RNA expression at 20 uM after 12 hrs by RT-PCR analysis; type: cell-based
[10] = system: MV4-11; experiment: Induction of apoptosis in human MV4-11 cells assessed as increase in cleaved caspase9 levels after 24 hrs by Western blot analysis; type: functional, cell-based
[11] = target: T1, CREB-binding protein/Histone acetyltransferase p300 (Homo sapiens); experiment: Inhibition of P300/CBP in human MV4-11 cells assessed as downregulation of RRM2B RNA expression at 20 uM after 12 hrs by RNA-seq analysis; type: cell-based
[12] = target: T1, CREB-binding protein/Histone acetyltransferase p300 (Homo sapiens); experiment: Inhibition of P300/CBP in human MV4-11 cells assessed as upregulation of GADD45B RNA expression at 20 uM after 12 hrs by RT-PCR analysis; type: cell-based
[13] = system: MOLT-4; experiment: Antiproliferative activity against human MOLT4 cells after 72 hrs by CellTiter-Glo assay; conditions: MOLT-4, 72 h
[14] = target: T1, CREB-binding protein/Histone acetyltransferase p300 (Homo sapiens); experiment: Inhibition of P300/CBP in human MV4-11 cells assessed as downregulation of CCNB1 RNA expression at 20 uM after 12 hrs by RNA-seq analysis; type: cell-based
[15] = system: MV4-11; experiment: Induction of apoptosis in human MV4-11 cells assessed as increase in cleaved caspase3 levels after 24 hrs by Western blot analysis; type: functional, cell-based
[16] = system: MV4-11; experiment: Antitumor activity against human MV4-11 cells xenografted in ip dosed nude mouse assessed as reduction in tumor growth rate administered every 2 days for 20 days; type: functional, organism-based
[17] = target: T1, CREB-binding protein/Histone acetyltransferase p300 (Homo sapiens); experiment: Inhibition of P300/CBP in human MV4-11 cells assessed as downregulation of CCNA2 RNA expression at 20 uM after 12 hrs by RNA-seq analysis; type: cell-based
[18] = target: T1, CREB-binding protein/Histone acetyltransferase p300 (Homo sapiens); experiment: Inhibition of P300/CBP in human MV4-11 cells assessed as downregulation of HIF1A RNA expression at 20 uM after 12 hrs by RT-PCR analysis; type: cell-based
[19] = target: T1, CREB-binding protein/Histone acetyltransferase p300 (Homo sapiens); experiment: Inhibition of P300/CBP in human MV4-11 cells assessed as downregulation of MYC RNA expression at 20 uM after 12 hrs by RNA-seq analysis; type: cell-based
[20] = system: MV4-11; experiment: Antitumor activity against human MV4-11 cells xenografted in ip dosed nude mouse assessed as increase in apoptotic cells administered every 2 days for 20 days by TUNEL assay; type: functional, organism-based
[21] = target: CREB-binding protein (Homo sapiens, UniProt Q92793); experiment: Inhibition of CBP (unknown origin) in presence of [3H]-acetyl-CoA
Sequence of CREB-binding protein (Q92793 whole entry): as the sequence (Q92793 whole entry, looked up) above

[22] = target: T1, CREB-binding protein/Histone acetyltransferase p300 (Homo sapiens); experiment: Inhibition of P300/CBP in human MV4-11 cells assessed as downregulation of MYC RNA expression at 20 uM after 12 hrs by RT-PCR analysis; type: cell-based
[23] = system: MOLT-3; experiment: Antiproliferative activity against human MOLT3 cells after 72 hrs by CellTiter-Glo assay; conditions: MOLT-3, 72 h
[24] = system: Kasumi 1; experiment: Antiproliferative activity against human Kasumi-1 cells after 72 hrs by CellTiter-Glo assay; conditions: Kasumi 1, 72 h
[25] = system: MV4-11; experiment: Induction of apoptosis in human MV4-11 cells assessed as apoptotic cells at 6.7 uM after 48 hrs by Annexin V-FITC/propidium iodide staining-based flow cytometric analysis; type: functional
[26] = target: T1, CREB-binding protein/Histone acetyltransferase p300 (Homo sapiens); experiment: Inhibition of P300/CBP in human MV4-11 cells assessed as downregulation of HIF1A RNA expression at 20 uM after 12 hrs by RNA-seq analysis; type: cell-based
[27] = system: MV4-11; experiment: Induction of apoptosis in human MV4-11 cells up to 20 uM after 48 hrs by Annexin V-FITC/propidium iodide staining-based flow cytometric analysis; type: functional, cell-based
[28] = system: MV4-11; experiment: Antitumor activity against human MV4-11 cells xenografted in nude mouse assessed as reduction in tumor cell proliferation at 25 to 50 mg/kg, ip administered every 2 days for 20 days by KI-67-staining based microscopic analysis; type: functional, organism-based
[29] = system: THP-1; experiment: Antiproliferative activity against human THP1 cells after 72 hrs by CellTiter-Glo assay; conditions: THP-1, 72 h
[30] = target: T1, CREB-binding protein/Histone acetyltransferase p300 (Homo sapiens); experiment: Inhibition of P300/CBP in human MV4-11 cells assessed as downregulation of RRM2B RNA expression at 20 uM after 12 hrs by RT-PCR analysis; type: cell-based
[31] = target: T1, CREB-binding protein/Histone acetyltransferase p300 (Homo sapiens); experiment: Inhibition of P300/CBP acetyl transferase activity in human MV4-11 cells assessed as reduction in acetylated H3K18 levels after 24 hrs in presence of SAHA by Western blot analysis; type: cell-based
[32] = target: T1, CREB-binding protein/Histone acetyltransferase p300 (Homo sapiens); experiment: Inhibition of P300/CBP in human MV4-11 cells assessed as downregulation of CCNA2 RNA expression at 20 uM after 12 hrs by RT-PCR analysis; type: cell-based
[33] = target: T1, CREB-binding protein/Histone acetyltransferase p300 (Homo sapiens); experiment: Inhibition of P300/CBP in human MV4-11 cells assessed as downregulation of CCNB1 RNA expression at 20 uM after 12 hrs by RT-PCR analysis; type: cell-based
[34] = target: T1, CREB-binding protein/Histone acetyltransferase p300 (Homo sapiens); experiment: Inhibition of P300/CBP acetyl transferase activity in human Kasumi-1 cells assessed as reduction in acetylated H3K18 levels after 24 hrs in presence of SAHA by Western blot analysis; type: cell-based
[35] = target: T1, CREB-binding protein/Histone acetyltransferase p300 (Homo sapiens); experiment: Inhibition of P300/CBP in human MV4-11 cells assessed as upregulation of SESN2 RNA expression at 20 uM after 12 hrs by RNA-seq analysis; type: cell-based
[36] = system: KOPN-8; experiment: Antiproliferative activity against human KOPN8 cells after 72 hrs by CellTiter-Glo assay; conditions: KOPN-8, 72 h
[37] = system: RS4-11; experiment: Antiproliferative activity against human RS4:11 cells after 72 hrs by CellTiter-Glo assay; conditions: RS4-11, 72 h
[38] = target: T1, CREB-binding protein/Histone acetyltransferase p300 (Homo sapiens); experiment: Inhibition of P300/CBP in human MV4-11 cells assessed as change in UHRF1 mRNA expression at 20 uM after 12 hrs by RNA-seq analysis; type: cell-based
[39] = target: T1, CREB-binding protein/Histone acetyltransferase p300 (Homo sapiens); experiment: Inhibition of P300/CBP in human MV4-11 cells assessed as upregulation of GADD45B RNA expression at 20 uM after 12 hrs by RNA-seq analysis; type: cell-based
[40] = system: CCRF-CEM; experiment: Antiproliferative activity against human CEM cells after 72 hrs by CellTiter-Glo assay
[41] = system: K562; experiment: Antiproliferative activity against human K562 cells after 72 hrs by CellTiter-Glo assay; conditions: K562, 72 h
[42] = system: MV4-11; experiment: Cell cycle arrest in human MV4-11 cells assessed as accumulation at G1 phase up to 20 uM after 24 hrs by propidium iodide/RNase staining-based flow cytometric analysis; type: functional
[43] = system: MV4-11; experiment: Induction of apoptosis in human MV4-11 cells assessed as increase in cleaved PARP levels after 24 hrs by Western blot analysis; type: functional, cell-based
[44] = target: T1, CREB-binding protein/Histone acetyltransferase p300 (Homo sapiens); experiment: Inhibition of P300/CBP in human MV4-11 cells assessed as change in DEPDC1 mRNA expression at 20 uM after 12 hrs by RNA-seq analysis; type: cell-based

Structure (SMILES): Cc1cc(/C=C2\C(=O)NC(=S)N(C)C2=O)c(C)n1C
- IC50 [1]: 14 µM

Structure (SMILES): CN1C(=O)/C(=C/c2c[nH]c3ccccc23)C(=O)NC1=S
- IC50 [1]: > 50 µM

Structure (SMILES): CN1C(=O)/C(=C/c2ccc(N3CCOCC3)o2)C(=O)NC1=S
- IC50 [1]: > 50 µM

Structure (SMILES): CCCCCCCCCCCCCCCc1cccc(O)c1C(=O)O [ANACARDIC ACID]
- IC50 [2]: 64 µM

Structure (SMILES): CN1C(=O)/C(=C/c2ccncc2)C(=O)NC1=S
- IC50 [1]: > 50 µM

Structure (SMILES): CN1C(=O)/C(=C/c2ccccc2)C(=O)NC1=S
- IC50 [1]: 45 µM
- IC50 [3]: > 100 µM
- inhibition [4]: inactive
- inhibition [5]: inactive

Structure (SMILES): Cc1ccc(N2C(=O)/C(=C\C=C\c3ccco3)C(=O)NC2=S)cc1Cl
- IC50 [6]: 2.2 µM
- inhibition [7]: Active
- inhibition [8]: Active
- inhibition [9]: Active
- Activity [10]: Dose-dependent effect
- inhibition [11]: Active
- inhibition [12]: Active
- IC50 [13]: 3.5 µM
- inhibition [14]: Active
- Activity [15]: Dose-dependent effect
- TGI [16]: Dose-dependent effect
- inhibition [17]: Active
- IC50 [1]: 0.7 µM
- inhibition [18]: Active
- inhibition [19]: Active
- Activity [20]: Dose-dependent effect
- IC50 [21]: 3.2 µM
- inhibition [22]: Active
- IC50 [23]: 2.7 µM
- IC50 [24]: 1.9 µM
- Activity [25]: >=60%
- IC50 [3]: 1.1 µM
- inhibition [26]: Active
- Activity [27]: Dose-dependent effect
- Activity [28]: Active
- IC50 [29]: 3 µM
- inhibition [30]: Active
- inhibition [31]: Dose-dependent effect
- inhibition [32]: Active
- inhibition [33]: Active
- inhibition [34]: Dose-dependent effect
- inhibition [35]: Active
- IC50 [36]: 5.9 µM
- IC50 [37]: 4.7 µM
- inhibition [38]: Active
- inhibition [39]: Active
- IC50 [40]: 3.8 µM
- IC50 [41]: 3.1 µM
- Activity [42]: Dose-dependent effect
- Activity [43]: Dose-dependent effect
- inhibition [44]: Active
